What was measured:
Conditions in all cases: 72 h
HepG2 [1] = assay: drug sensitivity score (DSS) for viability; higher = more toxic; extreme values may be limits of the assay
U2OS [2] = assay: as above
Vero E6 [3] = assay: as above
Caco-2 [4] = assay: as above
Calu-3 [5] = assay: as above
HepG2 [6] = assay: relative viability EC50 (midpoint between 100% and the lowest measured viability); higher = less toxic
U2OS [7] = assay: as above
Vero E6 [8] = assay: as above
Caco-2 [9] = assay: as above
Calu-3 [10] = assay: as above
HepG2 [11] = assay: cell viability relative to DMSO; higher = less toxic
U2OS [12] = assay: as above
Vero E6 [13] = assay: as above
Caco-2 [14] = assay: as above
Calu-3 [15] = assay: as above

Compound: CC(C)(C)NCC(O)COc1cccc2[nH]c(=O)[nH]c12 (stereo not given)
- drug sensitivity score (HepG2 [1]): 0
- drug sensitivity score (U2OS [2]): 0
- drug sensitivity score (Vero E6 [3]): 0
- drug sensitivity score (Caco-2 [4]): 0
- drug sensitivity score (Calu-3 [5]): 0
- relative viability EC50 (HepG2 [6]): > 10 µM
- relative viability EC50 (U2OS [7]): > 10 µM
- relative viability EC50 (Vero E6 [8]): > 10 µM
- relative viability EC50 (Caco-2 [9]): > 10 µM
- relative viability EC50 (Calu-3 [10]): > 10 µM
- cell viability (HepG2 [11]; 1 nM): 97.7%
- cell viability (HepG2 [11]; 10 nM): 93.3%
- cell viability (HepG2 [11]; 100 nM): 105%
- cell viability (HepG2 [11]; 1000 nM): 110%
- cell viability (HepG2 [11]; 10000 nM): 113%
- cell viability (U2OS [12]; 1 nM): 96.8%
- cell viability (U2OS [12]; 10 nM): 97%
- cell viability (U2OS [12]; 100 nM): 97.4%
- cell viability (U2OS [12]; 1000 nM): 97.9%
- cell viability (U2OS [12]; 10000 nM): 101%
- cell viability (Vero E6 [13]; 1 nM): 98.7%
- cell viability (Vero E6 [13]; 10 nM): 97.2%
- cell viability (Vero E6 [13]; 100 nM): 97.1%
- cell viability (Vero E6 [13]; 1000 nM): 103%
- cell viability (Vero E6 [13]; 10000 nM): 105%
- cell viability (Caco-2 [14]; 1 nM): 96.7%
- cell viability (Caco-2 [14]; 10 nM): 100%
- cell viability (Caco-2 [14]; 100 nM): 96.5%
- cell viability (Caco-2 [14]; 1000 nM): 97%
- cell viability (Caco-2 [14]; 10000 nM): 97.9%
- cell viability (Calu-3 [15]; 1 nM): 94.9%
- cell viability (Calu-3 [15]; 10 nM): 101%
- cell viability (Calu-3 [15]; 100 nM): 88.6%
- cell viability (Calu-3 [15]; 1000 nM): 106%
- cell viability (Calu-3 [15]; 10000 nM): 106%

Compound: CC1(C)N=C(N)N=C(N)N1OCCCOc1cc(Cl)c(Cl)cc1Cl
- drug sensitivity score (HepG2 [1]): 0
- drug sensitivity score (U2OS [2]): 0
- drug sensitivity score (Vero E6 [3]): 0
- drug sensitivity score (Caco-2 [4]): 0
- drug sensitivity score (Calu-3 [5]): 0
- relative viability EC50 (HepG2 [6]): > 10 µM
- relative viability EC50 (U2OS [7]): > 10 µM
- relative viability EC50 (Vero E6 [8]): > 10 µM
- relative viability EC50 (Caco-2 [9]): > 10 µM
- relative viability EC50 (Calu-3 [10]): > 10 µM
- cell viability (HepG2 [11]; 1 nM): 104%
- cell viability (HepG2 [11]; 10 nM): 93.8%
- cell viability (HepG2 [11]; 100 nM): 93.9%
- cell viability (HepG2 [11]; 1000 nM): 99.5%
- cell viability (HepG2 [11]; 10000 nM): 98.7%
- cell viability (U2OS [12]; 1 nM): 99.3%
- cell viability (U2OS [12]; 10 nM): 93.9%
- cell viability (U2OS [12]; 100 nM): 99.1%
- cell viability (U2OS [12]; 1000 nM): 95.7%
- cell viability (U2OS [12]; 10000 nM): 95%
- cell viability (Vero E6 [13]; 1 nM): 94.7%
- cell viability (Vero E6 [13]; 10 nM): 96.8%
- cell viability (Vero E6 [13]; 100 nM): 95.3%
- cell viability (Vero E6 [13]; 1000 nM): 98%
- cell viability (Vero E6 [13]; 10000 nM): 108%
- cell viability (Caco-2 [14]; 1 nM): 99.7%
- cell viability (Caco-2 [14]; 10 nM): 91.5%
- cell viability (Caco-2 [14]; 100 nM): 95.5%
- cell viability (Caco-2 [14]; 1000 nM): 102%
- cell viability (Caco-2 [14]; 10000 nM): 99.6%
- cell viability (Calu-3 [15]; 1 nM): 100%
- cell viability (Calu-3 [15]; 10 nM): 96.1%
- cell viability (Calu-3 [15]; 100 nM): 93.8%
- cell viability (Calu-3 [15]; 1000 nM): 93.7%
- cell viability (Calu-3 [15]; 10000 nM): 100%

Compound: CCCCOc1ccc(C(=O)Nc2ccc(F)cc2F)cc1
- drug sensitivity score (HepG2 [1]): 0
- drug sensitivity score (U2OS [2]): 0
- drug sensitivity score (Vero E6 [3]): 0
- drug sensitivity score (Caco-2 [4]): 0
- drug sensitivity score (Calu-3 [5]): 0
- relative viability EC50 (HepG2 [6]): > 10 µM
- relative viability EC50 (U2OS [7]): > 10 µM
- relative viability EC50 (Vero E6 [8]): > 10 µM
- relative viability EC50 (Caco-2 [9]): > 10 µM
- relative viability EC50 (Calu-3 [10]): > 10 µM
- cell viability (HepG2 [11]; 1 nM): 100%
- cell viability (HepG2 [11]; 10 nM): 98.2%
- cell viability (HepG2 [11]; 100 nM): 101%
- cell viability (HepG2 [11]; 1000 nM): 90.7%
- cell viability (HepG2 [11]; 10000 nM): 97.6%
- cell viability (U2OS [12]; 1 nM): 98.1%
- cell viability (U2OS [12]; 10 nM): 98.2%
- cell viability (U2OS [12]; 100 nM): 101%
- cell viability (U2OS [12]; 1000 nM): 96.6%
- cell viability (U2OS [12]; 10000 nM): 99.5%
- cell viability (Vero E6 [13]; 1 nM): 99.2%
- cell viability (Vero E6 [13]; 10 nM): 102%
- cell viability (Vero E6 [13]; 100 nM): 98.4%
- cell viability (Vero E6 [13]; 1000 nM): 99.7%
- cell viability (Vero E6 [13]; 10000 nM): 101%
- cell viability (Caco-2 [14]; 1 nM): 105%
- cell viability (Caco-2 [14]; 10 nM): 106%
- cell viability (Caco-2 [14]; 100 nM): 104%
- cell viability (Caco-2 [14]; 1000 nM): 92.6%
- cell viability (Caco-2 [14]; 10000 nM): 96.5%
- cell viability (Calu-3 [15]; 1 nM): 107%
- cell viability (Calu-3 [15]; 10 nM): 97.1%
- cell viability (Calu-3 [15]; 100 nM): 109%
- cell viability (Calu-3 [15]; 1000 nM): 99.2%
- cell viability (Calu-3 [15]; 10000 nM): 95.5%

Compound: CCN(c1cc(C#CCN2CCOCC2)cc(C(=O)NCc2c(C)cc(C)[nH]c2=O)c1C)[C@H]1CC[C@H](N(C)CCOC)CC1
- drug sensitivity score (HepG2 [1]): 0
- drug sensitivity score (U2OS [2]): 0
- drug sensitivity score (Vero E6 [3]): 0
- drug sensitivity score (Caco-2 [4]): 0
- drug sensitivity score (Calu-3 [5]): 0
- relative viability EC50 (HepG2 [6]): > 10 µM
- relative viability EC50 (U2OS [7]): > 10 µM
- relative viability EC50 (Vero E6 [8]): > 10 µM
- relative viability EC50 (Caco-2 [9]): > 10 µM
- relative viability EC50 (Calu-3 [10]): > 10 µM
- cell viability (HepG2 [11]; 1 nM): 92.7%
- cell viability (HepG2 [11]; 10 nM): 122%
- cell viability (HepG2 [11]; 100 nM): 112%
- cell viability (HepG2 [11]; 1000 nM): 105%
- cell viability (HepG2 [11]; 10000 nM): 91.2%
- cell viability (U2OS [12]; 1 nM): 94.3%
- cell viability (U2OS [12]; 10 nM): 95.7%
- cell viability (U2OS [12]; 100 nM): 96.4%
- cell viability (U2OS [12]; 1000 nM): 97.7%
- cell viability (U2OS [12]; 10000 nM): 103%
- cell viability (Vero E6 [13]; 1 nM): 107%
- cell viability (Vero E6 [13]; 10 nM): 96.9%
- cell viability (Vero E6 [13]; 100 nM): 95.9%
- cell viability (Vero E6 [13]; 1000 nM): 96.8%
- cell viability (Vero E6 [13]; 10000 nM): 102%
- cell viability (Caco-2 [14]; 1 nM): 92.5%
- cell viability (Caco-2 [14]; 10 nM): 103%
- cell viability (Caco-2 [14]; 100 nM): 86.4%
- cell viability (Caco-2 [14]; 1000 nM): 95.3%
- cell viability (Caco-2 [14]; 10000 nM): 91.6%
- cell viability (Calu-3 [15]; 1 nM): 97.6%
- cell viability (Calu-3 [15]; 10 nM): 95.3%
- cell viability (Calu-3 [15]; 100 nM): 108%
- cell viability (Calu-3 [15]; 1000 nM): 103%
- cell viability (Calu-3 [15]; 10000 nM): 103%

Compound: CCn1c(N)c(C(=O)NC)c(=O)c2ccc(C#C[C@@](C)(O)COC)nc21
- drug sensitivity score (HepG2 [1]): 0
- drug sensitivity score (U2OS [2]): 0
- drug sensitivity score (Vero E6 [3]): 0
- drug sensitivity score (Caco-2 [4]): 0
- drug sensitivity score (Calu-3 [5]): 0
- relative viability EC50 (HepG2 [6]): > 10 µM
- relative viability EC50 (U2OS [7]): > 10 µM
- relative viability EC50 (Vero E6 [8]): > 10 µM
- relative viability EC50 (Caco-2 [9]): > 10 µM
- relative viability EC50 (Calu-3 [10]): > 10 µM
- cell viability (HepG2 [11]; 1 nM): 92.6%
- cell viability (HepG2 [11]; 10 nM): 102%
- cell viability (HepG2 [11]; 100 nM): 93.2%
- cell viability (HepG2 [11]; 1000 nM): 105%
- cell viability (HepG2 [11]; 10000 nM): 104%
- cell viability (U2OS [12]; 1 nM): 102%
- cell viability (U2OS [12]; 10 nM): 96.9%
- cell viability (U2OS [12]; 100 nM): 98.3%
- cell viability (U2OS [12]; 1000 nM): 97.8%
- cell viability (U2OS [12]; 10000 nM): 97.4%
- cell viability (Vero E6 [13]; 1 nM): 94.1%
- cell viability (Vero E6 [13]; 10 nM): 98.6%
- cell viability (Vero E6 [13]; 100 nM): 94.8%
- cell viability (Vero E6 [13]; 1000 nM): 99.1%
- cell viability (Vero E6 [13]; 10000 nM): 104%
- cell viability (Caco-2 [14]; 1 nM): 105%
- cell viability (Caco-2 [14]; 10 nM): 92.8%
- cell viability (Caco-2 [14]; 100 nM): 104%
- cell viability (Caco-2 [14]; 1000 nM): 94.2%
- cell viability (Caco-2 [14]; 10000 nM): 92.5%
- cell viability (Calu-3 [15]; 1 nM): 89.4%
- cell viability (Calu-3 [15]; 10 nM): 100%
- cell viability (Calu-3 [15]; 100 nM): 103%
- cell viability (Calu-3 [15]; 1000 nM): 98.3%
- cell viability (Calu-3 [15]; 10000 nM): 109%

From the supplement of paper PMC13380429
